Laboratory results reported in patent US11219623B2, “Inflammasome inhibition for the treatment of Parkinson's disease, Alzheimer's disease and multiple sclerosis” (University of Kentucky Research Foundation, priority 2015, dated 2022).
Converted amounts (≈) assume the structure as drawn. “Also recorded” adds a separate entry of the source.

What was measured:
[1] = tested on: primary human RPE cells; test: ATP release induced by Alu RNA, ATP-dependent luciferase assay, primary human RPE cells; assay type: cell-based; conditions: cell culture supernatant
Description: Alu RNA (Kerur et al., 2013) and LPS/ATP (Qu et al., 2011) activate the inflammasome via the ATP receptor P2X7.
(FIG. 16) Primary human RPE cells treated with Alu RNA for the times indicated release ATP. […] ATP was detected using an ATP-dependent luciferase assay.

[2] = LogP, partition coefficient in 1-octanol; assay type: physicochemical; conditions: 1-octanol partition
[3] = tested on: GFP-expressing lentivirus; test: GFP-expressing lentivirus transduction/replication assay in HeLa cells; assay type: cell-based
Protocol: All drugs were added at a concentration of 10 μM. Cells were imaged for GFP expression 72 hours after addition of lentivirus. GFP-positive cells per field of view were recorded. n=4-11, error bars S.E.M. Reverse transcription of lentivirus is essential for GFP expression; modified NRTIs should not block reverse transcriptase, whereas NRTIs are known to block reverse transcriptase.
(§1) The present disclosure further provides the results of additional experiments in FIG. 21-FIG. 23.

[4] = tested on: Caspase-1; test: Alu RNA-induced Caspase-1 activation, western blot, primary human RPE cells; assay type: cell-based
Description: The bottom row in FIG. 5 is a vinculin loading control.

[5] = tested on: IL-18; test: LPS/ATP-induced IL-18 maturation, mouse bone marrow-derived macrophages; assay type: cell-based; conditions: 100 uM; cell culture supernatants
[6] = target: T1, human P2X7 receptor (Homo sapiens, UniProt Q99572); conditions: 64 μM drug; bzATP 100 μM; n=12
T1 sequence (Q99572 1-595): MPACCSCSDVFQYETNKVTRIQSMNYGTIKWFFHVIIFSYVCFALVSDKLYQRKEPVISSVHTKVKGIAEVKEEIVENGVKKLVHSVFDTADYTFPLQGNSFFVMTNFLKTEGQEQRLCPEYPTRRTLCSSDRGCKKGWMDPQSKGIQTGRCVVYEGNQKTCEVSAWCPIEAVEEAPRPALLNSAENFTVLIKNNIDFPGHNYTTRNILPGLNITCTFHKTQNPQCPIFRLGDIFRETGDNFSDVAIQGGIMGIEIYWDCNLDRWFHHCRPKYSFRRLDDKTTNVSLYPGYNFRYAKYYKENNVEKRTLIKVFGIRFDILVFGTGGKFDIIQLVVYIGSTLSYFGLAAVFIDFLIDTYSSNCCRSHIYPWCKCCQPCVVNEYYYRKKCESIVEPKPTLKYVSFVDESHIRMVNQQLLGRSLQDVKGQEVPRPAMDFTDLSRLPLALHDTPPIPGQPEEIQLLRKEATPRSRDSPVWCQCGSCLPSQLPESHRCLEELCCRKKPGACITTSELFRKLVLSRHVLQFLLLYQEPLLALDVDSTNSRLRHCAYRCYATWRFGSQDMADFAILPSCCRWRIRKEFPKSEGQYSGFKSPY

[7] = tested on: primary human RPE cells; test: Extracellular potassium after Alu RNA transfection, potassium-dependent pyruvate kinase assay; assay type: cell-based; conditions: 6 hours
Protocol: For FIG. 18, potassium levels were determined in cell culture supernatants spectrophotometrically using a potassium-dependent pyruvate kinase assay.

[8] = tested on: IRAK4; test: Alu RNA-induced IRAK4 phosphorylation, primary mouse RPE cells; assay type: cell-based
[9] = tested on: mice; test: Iron-induced RPE degeneration in mice; assay type: in vivo, mouse; conditions: intraperitoneal 25 mg/kg days 1 to 6; read day 7
[10] = Solubility in water; assay type: physicochemical; conditions: aqueous buffer; Water pH 7.2 at 37° C.
[11] = tested on: IL-1 beta; test: Nigericin-induced IL-1 beta maturation, mouse bone marrow-derived macrophages; assay type: cell-based; conditions: 100, 250 uM
[12] = tested on: Alu RNA; test: Alu RNA levels, Northern blotting, primary human RPE cells; assay type: cell-based
Description: As presented in FIG. 3, primary human RPE cells treated with antisense oligonucleotides targeting DICER1 (Dcr as) (lane 3 (third lane from left)) show increased Alu RNA levels in the nuclear compartment compared to control antisense oligonucleotides (Ctr as) (lane 1 (leftmost)), monitored by Northern blotting using an Alu-specific probe.
For example, primary human RPE cells may be transfected with Alu RNA, with or without d4T. […] U6 (bottom row) is shown as loading control for nuclear fraction in FIG. 4.
And FIG. 45 presents a Northern blot of biotin-UTP-labeled Alu RNA-transfected primary human RPE cells.

[13] = tested on: Caspase-1; test: Nigericin-induced Caspase-1 activation, mouse bone marrow-derived macrophages; assay type: cell-based; conditions: 100, 250 uM
[14] = tested on: HeLa cells; test: Cytotoxicity of Alu RNA expression plasmid (pAluA), MTS proliferation assay; assay type: cell-based, human; conditions: pAluA vs pUC19
Description: Meanwhile, in certain embodiments, […] protects against cytotoxicity induced by plasmid expressing Alu RNA in vitro.

[15] = tested on: wild-type mice; test: pAlu-induced RPE degeneration, mouse model of dry AMD; assay type: in vivo; conditions: daily oral administration
Protocol: Mouse studies were conducted to study treatment with NRTIs or derivatives.

[16] = tested on: mtDNA; test: mtDNA levels, real-time quantitative PCR, primary mouse RPE cells; assay type: cell-based; conditions: normalized to chromosomal DNA, n=4
Description: as §1

[17] = target: T2, mouse P2X7 receptor (Mus musculus, UniProt Q9Z1M0); test: P2X7 cation channel function, patch clamp, HEK293 cells expressing mouse P2X7; assay type: cell-based; conditions: mouse P2X7 in HEK293
T2 construct: expressed in transfected cells; host or cells: HEK293 cells

[18] = tested on: mice; test: Graft-versus-host disease model, mice receiving allogeneic bone marrow and T cells; assay type: in vivo, mouse; conditions: vs. 0% in saline treated controls
Description: To explore the potential therapeutic relevance of NRTIs beyond the Alu-induced model of geographic atrophy (GA), it was hypothesized that if NRTIs function as generic inflammasome inhibitors, then they might be broadly useful in other animal models of disease that are also driven by P2X7.

[19] = tested on: IRAK4; test: LPS/ATP-induced IRAK4 phosphorylation, primary human RPE cells; assay type: cell-based; conditions: 25/100 uM
Description: The loading control in FIG. 8 is vinculin. Furthermore, as shown, LPS and ATP activate the NLRP3 inflammasome only in combination, thus treatment with one or the other alone is useful as a control for this experiment.

T2 sequence (Q9Z1M0 whole entry): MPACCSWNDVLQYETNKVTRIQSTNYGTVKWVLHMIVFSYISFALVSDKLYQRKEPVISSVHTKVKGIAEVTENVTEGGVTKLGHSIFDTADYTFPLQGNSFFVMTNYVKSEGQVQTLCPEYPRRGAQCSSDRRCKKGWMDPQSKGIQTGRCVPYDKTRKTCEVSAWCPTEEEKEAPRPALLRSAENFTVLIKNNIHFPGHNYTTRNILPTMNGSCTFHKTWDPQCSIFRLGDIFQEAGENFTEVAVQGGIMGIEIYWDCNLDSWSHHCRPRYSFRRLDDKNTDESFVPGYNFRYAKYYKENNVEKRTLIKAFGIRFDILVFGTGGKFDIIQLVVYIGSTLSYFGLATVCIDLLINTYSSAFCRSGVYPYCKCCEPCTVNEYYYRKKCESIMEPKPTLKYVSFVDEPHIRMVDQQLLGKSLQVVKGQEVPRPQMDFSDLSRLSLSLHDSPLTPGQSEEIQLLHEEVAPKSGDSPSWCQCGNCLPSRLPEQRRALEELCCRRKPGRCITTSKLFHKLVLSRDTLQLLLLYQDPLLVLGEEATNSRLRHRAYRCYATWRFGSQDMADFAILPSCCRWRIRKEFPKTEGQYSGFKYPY

Cc1cn([C@H]2C=C[C@@H](CO)O2)c(=O)[nH]c1=O [d4T, 2′3′ dideoxythymidine]
ATP release induced by Alu RNA [1]: does not block release of ATP; also recorded: did not affect ATP release | logP [2]: -0.23 | lentivirus replication (GFP-positive cells per field) ([3]; 10 μM, 72 hours, MOI 20): blocked lentivirus GFP expression | replication of GFP-expressing lentivirus ([3]; FIG. 22, concentration not given): blocks replication | Alu RNA-induced Caspase-1 maturation ([4]; 100 uM, 24 hours after Alu administration): blocked | Alu RNA-induced Caspase-1 activation/cleavage ([4]; concentration not given): prevents Caspase 1 cleavage | IL-18 maturation induced by LPS/ATP [5]: inhibit | P2X7-mediated YO-PRO-1 dye uptake induced by bzATP [6]: inhibited | extracellular potassium levels after Alu RNA transfection [7]: reduces extracellular potassium levels | IRAK4 phosphorylation induced by Alu RNA [8]: blocks phosphorylation of IRAK4 | Iron-induced RPE degeneration [9]: blocked the development of RPE degeneration | solubility [10]: 106 mg/mL (≈ 473 mM) | IL-1 beta maturation (18 and 22 kDa forms) induced by nigericin [11]: inhibits IL-1 beta maturation | Alu RNA levels, nuclear compartment ([12]; cells treated with antisense oligonucleotides targeting DICER1): does not reduce Alu RNA levels | Alu RNA levels after Alu RNA transfection ([12]; nuclear fraction 1, 4, or 24 hours (FIG. 4), biotin-UTP-labeled Alu RNA (FIG. 45)): does not change Alu RNA levels; also recorded: did not reduce Alu RNA levels | Caspase-1 activation (active p20 band) induced by nigericin [13]: inhibits | cell death induced by Alu overexpression (viability, MTS) [14]: prevented cell death | pAlu-induced RPE degeneration [15]: blocked RPE degeneration | mtDNA levels [16]: reduces mtDNA levels | P2X7 cation channel function [17]: did not significantly modulate P2X7 cation channel function | survival [18]: 30-70% | IRAK4 phosphorylation induced by LPS/ATP [19]: blocks
